In brackets after ≈: the same amount, converted by molar mass. Like-named read-outs stand apart in the source and are kept apart here.
Columns and labels:
E. coli ATCC25922 = format: cell-based, Escherichia coli
Procedure: (§1) The antibacterial activity of novel darobactins was determined by the evaluation of the minimum inhibitory concentration (MIC) as previously described for crude extracts and for pure darobactin analogues.[12]

A. baumannii DSM-30008 = format: cell-based, Acinetobacter baumannii
Procedure: as §1

P. aeruginosa PA01 = format: cell-based, Pseudomonas aeruginosa
Procedure: as §1

K. pneumoniae DSM-30104 = format: cell-based, Klebsiella pneumoniae
Procedure: as §1

Gram-negative bacteria = settings: result in words; cited from earlier work
[1] = system: P. aeruginosa 84389 (MDR clinical isolate); assay: microbe, parasite or virus in culture
Procedure: as §1

[2] = system: P. aeruginosa 83979 (MDR clinical isolate); assay: microbe, parasite or virus in culture; settings: for MIC: Pseudomonas aeruginosa
Procedure: as §1

[3] = target: T1, EcBamA (E. coli BamA barrel domain) (Escherichia coli, UniProt P0A940, C690S/C700S); assay: Microscale thermophoresis (MST) KD determination; format: binding
T1 construct: The E. coli BamA barrel domain (BamA-β) (residues 421–810, C690S, C700S); made in house
Procedure: As an alternative to the previously published methods using isothermal titration calorimetry (ITC), we established a KD determination assay using microscale thermophoresis (MST) to enable higher throughput.
Microscale thermophoresis (MST) (serial no. 201709-BR-N024, Monolith NT.115 Micro Scale Thermophoresis, NanoTemper Technologies GmbH) was performed according to the standard protocol from the manufacturer NanoTemper Technologies GmbH using a Monolith His-Tag Labeling Kit RED-tris-NTA second-generation kit. The buffer used was HEPES (50 mM), pH 7.6, MgCl2 (5 mM), and Tween (0.05%). […] A 1:1 dilution of the ligand over 16 samples was performed using a stock of ligand (in water) diluted in HEPES buffer. Nonhydrophobic capillary tubes were used. A pretest to check for the labeling and compound fluorescence was performed for every sample followed by a binding affinity (KD) determination. Each sample was measured after 15 min of incubation at RT and analyzed in MO Control version 1.6.

[4] = rat (Wistar) plasma; 1 μM
Procedure: (§2) To determine stability in plasma, the compound (1 μM) was incubated with pooled CD-1 mouse, Wistar rat, or human plasma (Neo Biotech, Nanterre, France). […] Samples were stored on ice until the end of the incubation, and precipitated protein was removed by centrifugation (15 min, 4 °C, 4000g, and 2 centrifugation steps). The concentration of the remaining test compound at the different time points was analyzed by HPLC-MS/MS (TSQ Quantum Access MAX, Thermo Fisher, Dreieich, Germany). The plasma stability of procaine, propantheline, and diltiazem was determined in parallel to confirm the enzymatic activity.

A. baumannii NCTC 13301 = format: cell-based, Acinetobacter baumannii
Procedure: as §1

A. baumannii ATCC 17978 = format: cell-based, Acinetobacter baumannii
Procedure: as §1

[5] = for liver microsomes Clint / liver microsomes t1/2: 1 μM; for liver microsomes t1/2: 120 min incubation
Procedure: The metabolic stability of testosterone, verapamil, and ketoconazole was determined in parallel to confirm the enzymatic activity of mouse/rat liver microsomes; for human liver microsomes, testosterone, diclofenac, and propranolol were used. Incubation was stopped after defined time points by precipitation of aliquots of enzymes with 2 volumes of cold acetonitrile containing an internal standard (15 nM diphenhydramine). Samples were stored on ice until the end of the incubation, and precipitated protein was removed by centrifugation (15 min, 4 °C, and 4000g). The concentration of the remaining test compound at the different time points was analyzed by HPLC-MS/MS (TSQ Altis Plus, Thermo Fisher, Dreieich, Germany) and used to determine the half-life (t1/2).

[6] = human plasma; 1 μM
Procedure: as §2

[7] = system: Acinetobacter baumannii DSM-30007; format: cell-based
Procedure: as §1

[8] = system: P. aeruginosa PA14 DSM 19882; format: cell-based, Pseudomonas aeruginosa
Procedure: as §1

Row | Compound | MIC E. coli [ATCC25922] (E. coli ATCC25922; ATCC25922) [µg/mL] | MIC A. baumannii [DSM-30008] (A. baumannii DSM-30008; DSM-30008) [µg/mL] | MIC P. aeruginosa [PA01] (P. aeruginosa PA01) [µg/mL] | MIC K. pneumoniae [DSM-30104] (K. pneumoniae DSM-30104; DSM-30104) [µg/mL] | published antibacterial activity (Gram-negative bacteria) | MIC E. coli [ATCC25922] (E. coli ATCC25922; pure compound, n = 2, Table 2) [µg/mL] | MIC A. baumannii [DSM-30008] (A. baumannii DSM-30008; pure compound, n = 2, Table 2) [µg/mL] | MIC P. aeruginosa [PA01] (P. aeruginosa PA01; pure compound, n = 2, Table 2) [µg/mL] | MIC K. pneumoniae [DSM-30104] (K. pneumoniae DSM-30104; pure compound, n = 2, Table 2) [µg/mL] | IC50 HepG2 (HepG2; cytotoxicity, n = 2) [µg/mL] | Kd [3] [µM] | other results
1 | N=C(N)NCC[C@H]1c2ccc3c(c[nH]c3c2)[C@H]2Oc3cccc4c(c[nH]c34)C[C@H](N)C(=O)N[C@@H](CC(N)=O)C(=O)N[C@@H]2C(=O)N[C@@H](CO)C(=O)N[C@@H]1C(=O)N[C@@H](CO)C(=O)N[C@@H](Cc1ccccc1)C(=O)O [DD, darobactin D, reference compound] | 1 (≈ 1.01 µM) | 4 to 8 | 2 (≈ 2.01 µM) | 8 to 16 | inactive | – | – | – | – | – | – | –
2 | C[C@@H](O)[C@H]1C(=O)N2C(C(=O)O)=C(S[C@@H]3CN[C@H](C(=O)N(C)C)C3)[C@H](C)[C@H]12 [meropenem] | – | – | – | – | – | – | – | – | – | – | – | MIC ([1]; Pseudomonas aeruginosa, read-out: MIC P. aeruginosa 84389): 16 µg/mL (≈ 41.7 µM); MIC ([2]; BAL, read-out: resistance profile, MIC, P. aeroginosa 83979): > 16 µg/mL; MIC ([2]; read-out: MIC P. aeruginosa 83979): 16 µg/mL (≈ 41.7 µM)
3 | C[C@@H](O)[C@@H]1NC(=O)[C@H]2NC(=O)[C@H](CCC(=O)O)NC(=O)[C@@H](N)Cc3c[nH]c4c(cccc34)O[C@@H]2c2c[nH]c3cc(ccc23)[C@H](CCCN)[C@@H](C(=O)N[C@@H](CCCNC(=N)N)C(=O)N[C@@H](Cc2c[nH]c3ccccc23)C(=O)O)NC1=O [D58] | – | – | – | – | – | 8 (≈ 7.25 µM) | 2 (≈ 1.81 µM) | 8 (≈ 7.25 µM) | 16 (≈ 14.5 µM) | > 37 | 5.1 ± 3.7 | –
4 | N=C(N)NCCC[C@H](NC(=O)[C@H]1NC(=O)[C@H](CO)NC(=O)[C@H]2NC(=O)[C@H](CCC(N)=O)NC(=O)[C@@H](N)Cc3c[nH]c4c(cccc34)O[C@@H]2c2c[nH]c3cc(ccc23)[C@@H]1CCCN)C(=O)N[C@@H](Cc1c[nH]c2ccccc12)C(=O)O [D69, darobactin 69] | 1 (≈ 0.919 µM) | 0.5 (≈ 0.459 µM) | 1 (≈ 0.919 µM) | 4 (≈ 3.68 µM) | – | – | – | – | – | – | 1.4 ± 0.4 | plasma t1/2 [4]: >240 min; MIC A. baumannii DSM-30008 (A. baumannii DSM-30008; DSM-30008): 0.5 μg mL^–1; MIC A. baumannii NCTC 13301 (A. baumannii NCTC 13301): 8–16 μg mL^–1; MIC A. baumannii ATCC 17978 (A. baumannii ATCC 17978): 16 μg mL^–1; liver microsomes Clint ([5]; human): < 11.6 µL/mg/min; liver microsomes t1/2 ([5]; human): > 120 min; liver microsomes Clint ([5]; mouse C57BL/6): < 11.6 µL/mg/min; liver microsomes t1/2 ([5]; mouse C57BL/6): > 120 min; metabolism in murine liver microsomes ([5]; over 2 h): not metabolized; liver microsomes Clint ([5]; rat (Wistar)): < 11.6 µL/mg/min; liver microsomes t1/2 ([5]; rat (Wistar)): > 120 min; plasma t1/2 [6]: >240 min; plasma t1/2 (mouse CD-1 plasma, 1 μM): >240 min; plasma stability (degradation) (over 4 h): no degradation; MIC Acinetobacter baumannii DSM-30007 [7]: 2 μg mL^–1; MIC P. aeruginosa PA14 DSM 19882 [8]: 16 μg mL^–1; MIC Pseudomonas aeruginosa PA01 DSM 22644 (P. aeruginosa PA01): 1 μg mL^–1; MIC P. aeruginosa 84389 ([1]; 84389 (MDR clinical isolate)): 16–32 μg mL^–1; MIC P. aeruginosa 83979 ([2]; 83979 (MDR clinical isolate)): 8–16 μg mL^–1; IC50 HepG2 (HepG2): > 37 µg/mL
5 | darobactin E (WSWSKSF) [DE, native darobactin analogue, core peptide WSWSKSF] | – | – | – | – | rather inactive | – | – | – | – | – | – | –
6 | C[C@@H](O)[C@@H]1NC(=O)[C@H]2NC(=O)[C@H](CCC(N)=O)NC(=O)[C@@H](N)Cc3c[nH]c4c(cccc34)O[C@@H]2c2c[nH]c3cc(ccc23)[C@H](CCCN)[C@@H](C(=O)N[C@@H](CCCNC(=N)N)C(=O)N[C@@H](Cc2c[nH]c3ccccc23)C(=O)O)NC1=O [D61] | – | – | – | – | – | 2 (≈ 1.81 µM) | 0.5 (≈ 0.454 µM) | 4 (≈ 3.63 µM) | 8 (≈ 7.26 µM) | > 37 | 3.6 ± 0.6 | –

— publication PMC10726357, “New Genetically Engineered Derivatives of Antibacterial Darobactins Underpin Their Potential for Antibiotic Development” (Journal of Medicinal Chemistry, 2023)
